The test system of the experiment is HIV-infected Jurkat cell clones (C16, I15 and N6). The experiment can be described thus: Jurkat HIV Latency assay (HIV activation, luciferase). As to conditions: Homo sapiens, HIV activation by HIV expressed luciferase (Steady-Glo), cells incubated with compound 24 hours at 37° C. Format: cell-based. The procedure:
For the Jurkat HIV Latency assay, compounds are dissolved and titrated in DMSO and diluted 100-fold in assay medium (RPMI-1640 containing 10% fetal bovine serum) containing an equal mixture of three HIV-infected Jurkat cell clones (C16, I15 and N6) at a total concentration of 1-2×10e^5 cells/mL. To test stability, compounds are pre-incubated in an assay medium for 48 hours at 37° C. prior to adding cells (48 hr EC50). Compounds that induce HIV expression result in a dose-dependent production of the HIV expressed luciferase enzyme. After the incubation of cells with compound for 24 hours at 37° C., HIV activation and cytotoxicity are determined by measuring luminescence after the addition of Promega Steady-Glo® Luciferase Assay reagent or CellTiter-Glo® Luminescent Cell Viability Assay reagent, respectively.

The values below come from patent US10583140B2, “Ingenol analogs, pharmaceutical compositions and methods of use thereof” (GlaxoSmithKline Intellectual Property Development Limited, priority 2016, dated 2020).

As for `CC(=O)OCC1=C[C@@H]2C(=O)[C@]3(C=C(C)[C@H](OC(=O)N(C)c4ccc(Cl)cc4)[C@@]3(O)[C@@H]1O)[C@H](C)C[C@@H]1[C@H]2C1(C)C` [Example 1, ((1aR,2S,5R,5aS,6S,8aS,9R,10aR)-6-(((4-chlorophenyl) (methyl)carbamoyl)oxy)-5,5a-dihydroxy-1,1,7,9-tetramethyl-11-oxo-1a,2,5,5a,6,9,10,10a-octahydro-1H-2,8a-methanocyclopenta[a]cyclopropa[e][10]annulen-4-yl)methyl acetate], the EC50 was 7 nM.

As for `CC1=C[C@]23C(=O)[C@@H](C=C(COC(=O)c4ccccc4)[C@@H](O)[C@]2(O)[C@H]1OC(=O)N(C)c1ccc(Cl)cc1)[C@H]1[C@@H](C[C@H]3C)C1(C)C` [Example 2, ((1aR,2S,5R,5aS,6S,8aS,9R,10aR)-6-(((4-chlorophenyl) (methyl)carbamoyl)oxy)-5,5a-dihydroxy-1,1,7,9-tetramethyl-11-oxo-1a,2,5,5a,6,9,10,10a-octahydro-1H-2,8a-methanocyclopenta [a]cyclopropa[e][10]annulen-4-yl)methyl benzoate], the half-maximal effective concentration (EC50) is 22 nM.

As to `CC1=C[C@]23C(=O)[C@@H](C=C(CN4C(=O)c5ccccc5C4=O)[C@@H](O)[C@]2(O)[C@H]1OC(=O)N(C)c1ccc(Cl)cc1)[C@H]1[C@@H](C[C@H]3C)C1(C)C` [Example 3, (1aR,2S,5R,5aS,6S,8aS,9R,10aR)-4-((1,3-dioxoisoindolin-2-yl)methyl)-5,5a-dihydroxy-1,1,7,9-tetramethyl-11-oxo-1a,2,5,5a,6,9,10,10a-octahydro-1H-2,8a-methanocyclopenta[a]cyclopropa[e][10]annulen-6-yl (4-chlorophenyl) (methyl)carbamate], the EC50 came to 1110 nM.

`CC1=C[C@]23C(=O)[C@@H](C=C(CO)[C@@H](O)[C@]2(O)C1=O)[C@H]1[C@@H](C[C@H]3C)C1(C)C` [Example 4, (1aR,2S,5R,5aS,8aS,9R,10aR)-5,5a-dihydroxy-4-(hydroxymethyl)-1,1,7,9-tetramethyl-1a,2,5,5a,10,10a-hexahydro-1H-2,8a-methanocyclopenta[a]cyclopropa[e][10]annulene-6,11 (9H)-dione]: the EC50 came to 4940 nM.

Consider `CC1=C[C@]23C(=O)[C@@H](C=C(COC(=O)N(C)c4ccc(Cl)cc4)[C@@H](O)[C@]2(O)[C@H]1O)[C@H]1[C@@H](C[C@H]3C)C1(C)C` [Example 5, ((1aR,2S,5R,5aR,6S,8aS,9R,10aR)-5,5a,6-trihydroxy-1,1,7,9-tetramethyl-11-oxo-1a,2,5,5a,6,9,10,10a-octahydro-1H-2,8a-methanocyclopenta[a]cyclopropa[e][10]annulen-4-yl)methyl (4-chlorophenyl)(methyl)carbamate], for which the EC50 turned out to be 616 nM.

As to `CC1=C[C@]23C(=O)[C@@H](C=C(COC(=O)Nc4ccccc4)[C@@H](O)[C@]2(O)[C@H]1O)[C@H]1[C@@H](C[C@H]3C)C1(C)C` [Example 6, ((1aR,2S,5R,5aR,6S,8aS,9R,10aR)-5,5a,6-trihydroxy-1,1,7,9-tetramethyl-11-oxo-1a,2,5,5a,6,9,10,10a-octahydro-1H-2,8a-methanocyclopenta[a]cyclopropa[e][10]annulen-4-yl)methyl phenylcarbamate], the EC50 turned out to be 3680 nM.

In the case of `CCCCNC(=O)OCC1=C[C@@H]2C(=O)[C@]3(C=C(C)[C@H](O)[C@@]3(O)[C@@H]1O)[C@H](C)C[C@@H]1[C@H]2C1(C)C` [Example 7, ((1aR,2S,5R,5aR,6S,8aS,9R,10aR)-5,5a,6-trihydroxy-1,1,7,9-tetramethyl-11-oxo-1a,2,5,5a,6,9,10,10a-octahydro-1H-2,8a-methanocyclopenta[a]cyclopropa[e][10]annulen-4-yl)methyl butylcarbamate], the EC50 was 1050 nM.

As to `CC1=C[C@]23C(=O)[C@@H](C=C(COC(=O)NCc4ccccc4)[C@@H](O)[C@]2(O)[C@H]1O)[C@H]1[C@@H](C[C@H]3C)C1(C)C` [Example 8, ((1aR,2S,5R,5aR,6S,8aS,9R,10aR)-5,5a,6-trihydroxy-1,1,7,9-tetramethyl-11-oxo-1a,2,5,5a,6,9,10,10a-octahydro-1H-2,8a-methanocyclopenta[a]cyclopropa[e][10]annulen-4-yl)methyl benzylcarbamate], the EC50 worked out at 4330 nM.

Regarding `CC1=C[C@]23C(=O)[C@@H](C=C(COC(=O)N(C)C4CCCCC4)[C@@H](O)[C@]2(O)[C@H]1O)[C@H]1[C@@H](C[C@H]3C)C1(C)C` [Example 9, ((1aR,2S,5R,5aR,6S,8aS,9R,10aR)-5,5a,6-trihydroxy-1,1,7,9-tetramethyl-11-oxo-1a,2,5,5a,6,9,10,10a-octahydro-1H-2,8a-methanocyclopenta[a]cyclopropa[e][10]annulen-4-yl)methyl cyclohexyl(methyl)carbamate], the EC50 was 50000 nM.

For the compound `CC1=C[C@]23C(=O)[C@@H](C=C(COC(=O)N4CCc5ccccc54)[C@@H](O)[C@]2(O)[C@H]1O)[C@H]1[C@@H](C[C@H]3C)C1(C)C` [Example 10, ((1aR,2S,5R,5aR,6S,8aS,9R,10aR)-5,5a,6-trihydroxy-1,1,7,9-tetramethyl-11-oxo-1a,2,5,5a,6,9,10,10a-octahydro-1H-2,8a-methanocyclopenta[a]cyclopropa[e][10]annulen-4-yl)methyl indoline-1-carboxylate], the concentration for a half-maximal effect (EC50) turned out to be 278 nM.

Turning to `CC1=C[C@]23C(=O)[C@@H](C=C(COC(=O)N4CCc5ccccc54)[C@@H](O)[C@]2(O)[C@H]1OC(=O)N1CCc2ccccc21)[C@H]1[C@@H](C[C@H]3C)C1(C)C` [Example 11, (1aR,2S,5R,5aS,6S,8aS,9R,10aR)-5,5a-dihydroxy-4-(((indoline-1-carbonyl)oxy)methyl)-1,1,7,9-tetramethyl-11-oxo-1a,2,5,5a,6,9,10,10a-octahydro-1H-2,8a-methanocyclopenta[a]cyclopropa[e][10]annulen-6-yl indoline-1-carboxylate], the EC50 stood at 3500 nM.

In the case of `CC1=C[C@]23C(=O)[C@@H](C=C(COc4ncc(C(F)(F)F)cn4)[C@@H](O)[C@]2(O)[C@H]1O)[C@H]1[C@@H](C[C@H]3C)C1(C)C` [Example 12, (1aR,2S,5R,5aR,6S,8aS,9R,10aR)-5,5a,6-trihydroxy-1,1,7,9-tetramethyl-4-(((5-(trifluoromethyl)pyrimidin-2-yl)oxy)methyl)-1a,2,5,5a,6,9,10,10a-octahydro-1H-2,8a-methanocyclopenta[a]cyclopropa[e][10]annulen-11-one], the EC50 came out at 5170 nM.

As a reminder, the EC50 is the concentration at which the effect is half-maximal.
